The results in this text go back to PubChem BioAssay AID1963597 (National Center for Advancing Translational Sciences (NCATS), 2024).

Some results are limits rather than exact numbers.

In this data set the test system is human liver microsomes, metabolic stability half-life. The experiment in a line: NCATS Human Liver Microsomal (HLM) Stability Profiling. Conditions: higher = more stable; screened at 1 µM (by protocol). Put shortly:
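Substrate depletion (in vitro t1/2): 1 µM compound with 0.5 mg/mL microsomes and NADPH regenerating system, phosphate buffer pH 7.4, 37 °C. Sampled at 0, 5, 10, 15, 30, 60 min into cold acetonitrile with albendazole internal standard for MS quantification.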
For `CCCCC(=O)OCC(=O)[C@H]1[C@H](C)C[C@H]2[C@@H]3C[C@H](F)C4=CC(=O)C=C[C@]4(C)[C@@]3(F)[C@@H](O)C[C@@]21C`, the half-life worked out at 5.18 min. Next, `Nc1ccc(N=Nc2ccccc2)c(N)n1`: 7.45 min; `CCc1cc(Cl)c(OC)c(C(=O)NC[C@@H]2CCCN2CC)c1O`: 13.6 min. Regarding `CC(C(=O)O)C1C=CC(C(=O)c2ccccc2)S1` (stereo not drawn), the half-life is > 120 min. Next, `CC(Cc1ccccc1)(NC(=O)CN)c1ccccc1` (stereo not drawn): > 120 min; `COc1cc(N2CCOCC2)ccc1NC(=O)c1csc(-c2cccnc2)n1`: 30.2 min; `O=Nc1c(-c2c(O)[nH]c3cc(Br)ccc23)[nH]c2ccccc12`: 19 min. On to `CC(C)c1ccccc1OC(=O)NCCc1ccc2ccccc2c1`, for which the half-life was found to be 4.54 min.

For the compound `CC(C)CN1C(=O)c2cccn2CC1C(=O)N1CCN(C)CC1` (stereo not drawn), the half-life worked out at 62.8 min. In the case of `N#Cc1ccc(-c2ccc(S(=O)(=O)Nc3cccc(N)n3)cc2)cc1` it was > 120 min; in that of `CNC(=O)c1cc(Oc2ccc(NC(=O)Nc3ccc(Cl)c(C(F)(F)F)c3)cc2)ccn1`, > 120 min. In the case of `Clc1ccccc1-c1nc(-c2ccncc2)no1` it was 35.8 min; in that of `O=C(O)c1ccc[n+]([O-])c1`, 106 min. `COc1ccccc1Cn1cc(C(=O)c2ccc(Cl)cc2)c(=O)c2cc3c(cc21)OCCO3`: the half-life worked out at 40.8 min. Next, `O=C(NCC1CCOCC1)c1cnc(Nc2ccc(Cl)cc2Cl)nc1C(F)(F)F`: 38.1 min. Regarding `Cc1ccccc1C(=O)Nc1cccc(-c2nc3cccnc3s2)c1`, the half-life turned out to be 6.57 min. As for `NC1=NCC2c3ccccc3Cc3ccccc3N12` (stereo not drawn), the half-life is > 120 min. `CCN(CC)C(=O)C(c1ccccc1)N1CCN(c2ccc(NC(=O)c3ccccc3-c3cccnc3)cc2F)CC1` (stereo not drawn): the half-life was determined as 4.93 min. In the case of `CCN1CCC[C@H]1CNC(=O)c1c(O)c(Cl)cc(Cl)c1OC` it was > 120 min; in that of `Cc1nn(C)c2c1C(c1ccc(C(F)(F)F)cc1)C(C#N)=C(N)O2` (stereo not drawn), 11 min. For `O=C(O)c1cccc(-c2noc(-c3ccccc3F)n2)c1`, the half-life is > 120 min. In the case of `CCOc1ccc(NC(=O)Cn2cc(C(=O)c3cccs3)c3ccccc32)cc1` it was 10.5 min; in that of `CCCc1nn(C)c2c(=O)[nH]c(-c3cc(S(=O)(=O)N4CCN(C)CC4)ccc3OCC)nc12`, 18.7 min.

Regarding `Cc1ccc(-c2c(-c3nn(C)c4ncnc(N5CCC(N6CCCCC6)C5)c34)cnn2C)cc1` (stereo not drawn), the half-life was > 120 min. Next, `COc1cc(Nc2nc3ccccc3nc2NS(=O)(=O)c2ccc(NC(=O)c3ccc(OC)c(C)c3)cc2)cc(OC)c1`: > 120 min. As to `CCN1CCN(C(=O)c2cc(-c3ccccc3OC)c3nncn3n2)CC1`, the half-life stood at 54.7 min. Next, `N[C@@H](Cc1ccc(Oc2cc(I)c(O)c(I)c2)c(I)c1)C(=O)O`: > 120 min. Regarding `COP(=S)(OC)SCn1nnc2ccccc2c1=O`, the half-life worked out at 8.16 min. In the case of `C=Cc1ccc(Cn2c(SCC(=O)N3CCN(c4ccc(F)cc4)CC3)nc3ccccc32)cc1` it was 2.42 min; in that of `c1cc(-c2cc(C3CCNCC3)[nH]n2)ccn1`, 72.6 min; in that of `COc1ccc2nc([C@H]3CCN(Cc4ccc(C(=O)O)cc4)C3)[nH]c2c1`, > 120 min. In the case of `COc1ccc2c(c1)CC[C@@H](CN(C)CC(=O)O)[C@H]2c1ccccc1` it was > 120 min; in that of `C=C1CCN([C@H](C)[C@](O)(Cn2cncn2)c2ccc(F)cc2F)CC1`, 10 min. In the case of `Fc1ccc(C2CCNC[C@H]2COc2ccc3c(c2)OCO3)cc1` (stereo partly drawn) it was 28.9 min; in that of `Clc1ccc(COC(Cn2ccnc2)c2ccc(Cl)cc2Cl)cc1` (stereo not drawn), 89.8 min. For `O=C(O)COC(=O)Cc1ccccc1Nc1c(Cl)cccc1Cl`, the half-life amounted to 2.83 min. In the case of `CCC(=O)N[C@@H]1Cc2ccccc2[C@H](c2ccccc2)C1` it was 46.1 min. In the case of `COc1ccc(OC)c([C@H](O)[C@H](C)N)c1` it was > 120 min; in that of `C[C@H]1[C@H](/C=C/c2ccc(-c3ccccc3C#N)cn2)[C@@H]2[C@@H](C)OC(=O)[C@@H]2C[C@@H]1C`, 15.3 min.

As for `Cc1ccc(C(=O)NC2CCN(c3cnn(CC4CC4)c(=O)c3)CC2)cc1C`, the half-life is > 120 min.

`O=C(CSc1nnc(-c2cccc(F)c2)c(-c2cccc(F)c2)n1)NC1CCCCC1`: the half-life was determined as 10.8 min. Next, `Cc1c(NC(=O)c2ccc(N3CCC(C)CC3)c([N+](=O)[O-])c2)cccc1-c1nc2ccccc2o1`: 30.7 min. Next, `COc1ccc(Nc2cc(-c3cnc(N)nc3)nc(N3CCOCC3)n2)cn1`: 39.3 min; `Cc1nc2c3ccccc3nc(NNC(=O)CCC(=O)N3CCN(c4cccc(Cl)c4)CC3)n2n1`: 10.9 min; `CCc1ccc(CNC(=O)c2sc3ncccc3c2-n2c(C)ccc2C)cc1`: 1.9 min.

Turning to `C1Cc2[nH]nc(-c3nn[nH]n3)c2C1`, the half-life is > 120 min.

With `Cc1cc2c(cc1S(N)(=O)=O)S(=O)(=O)CCC2`, the half-life is > 120 min. Regarding `NC(N)=NS(=O)(=O)c1ccc(N)cc1`, the half-life was 78.3 min.

In the case of `COc1cc2c(cc1OC)CN(C(=O)[C@@H](NCc1ccncc1)C(C)(C)C)CC2`, the half-life is 2.24 min. With `Cc1ccc(-n2c(SCc3ccccc3F)nc3[nH]ncc3c2=O)cc1C`, the half-life turned out to be 21.6 min. In the case of `Cc1cc(CN)cc(C)c1NC(=O)c1ccc(-c2cc(Cl)ccc2Cl)o1` it was > 120 min.

As for `CCN1CCN(C(=O)C2Cn3cccc3C(=O)N2CC(C)C)CC1` (stereo not drawn), the half-life was > 120 min. Next, `Cc1nn2c(c1-c1ccccc1Oc1ccccc1)N(Cc1cccc(C#N)c1)CCC2`: 0.77 min. `CCN(C(=O)c1sc2cc(OC)ccc2c1Cl)c1ccccc1` came in with a half-life of 3.3 min.

With `Cc1nc2c(C(F)(F)F)cccc2nc1-c1ccc(-c2cccc(S(C)(=O)=O)c2)cc1`, the half-life is > 120 min.

On to `CCOC(=O)c1ncn2c1CN(C)C(=O)c1cc(F)ccc1-2`, for which the half-life was > 120 min. In the case of `O=C1c2ccccc2C(=O)c2c(O)c(O)cc(O)c21` it was 59.8 min; in that of `COc1ccc2c(c1OC)C(=O)O[C@@H]2[C@H]1c2cc3c(cc2CCN1C)OCO3`, 103 min. In the case of `C/C(=N/NC(=O)c1ccncc1)C(=O)O` it was > 120 min. Next, `CCOP(=S)(OCC)Oc1cc(Cl)c(Br)cc1Cl`: 57.6 min; `O=C(O)c1ccc(Nc2ncc3c(n2)-c2ccc(Cl)cc2C(c2c(F)cccc2F)=NC3)cc1`: 46.9 min; `CC(C)C(Br)C(=O)NC(N)=O` (stereo not drawn): > 120 min. `Cc1cc(OCc2nnc(SC3CCCC3)n2-c2cccnc2)ccc1-c1ccc(S(C)(=O)=O)cc1` gave a half-life of 1.66 min.

Regarding `CN1CCN(C(=O)c2cc(-c3cccnc3)nc3c2cnn3C)CC1`, the half-life is > 120 min. Next, `OCCCNc1cc(-c2ccnc(Nc3cccc(Cl)c3)n2)ccn1`: 24.5 min. The compound `COc1ccc(-c2oc3ncn4nc(COc5c(C)cccc5C)nc4c3c2-c2ccc(OC)cc2)cc1` displayed a half-life of 13.2 min. In the case of `Cc1cc(O)c(-c2ccc([C@@H](C)CN(C)C)cc2)c2c1[nH]c(=O)c1sccc12` it was 95.3 min. In the case of `Clc1ccc(CO/N=C(\Cn2ccnc2)c2ccc(Cl)cc2Cl)c(Cl)c1` it was 55.1 min.
